Data reported in the NIST ThermoML archive (doi:10.1021/je200434a).

Conditions: 101.33 kPa, Liquid; for viscosity: Concentric cylinders viscometry; for mass density: Vibrating tube method

CCn1cc[n+](C)c1.O=S(=O)([O-])O [1-ethyl-3-methylimidazolium hydrogen sulfate]
Conditions	mass density [kg/m3]	viscosity [mPa·s]
283.15 K	–	5756.7
288.15 K	–	3635
293.15 K	1368.86	2389.9
294.15 K	1368.25	–
295.15 K	1367.63	–
296.15 K	1367	–
297.15 K	1366.38	–
298.15 K	1365.77	1628.4
299.15 K	1365.14	–
300.15 K	1364.53	–
301.15 K	1363.91	–
302.15 K	1363.29	–
303.15 K	1362.67	1144.8
304.15 K	1362.05	–
305.15 K	1361.44	–
306.15 K	1360.82	–
307.15 K	1360.21	–
308.15 K	1359.59	827.1
309.15 K	1358.98	–
310.15 K	1358.76	–
311.15 K	1358.14	–
312.15 K	1357.52	–
313.15 K	1356.9	612.2
314.15 K	1356.28	–
315.15 K	1355.67	–
316.15 K	1355.05	–
317.15 K	1354.43	–
318.15 K	1353.81	463
319.15 K	1353.19	–
320.15 K	1352.57	–
321.15 K	1351.96	–
322.15 K	1351.34	–
323.15 K	1350.72	356.8
324.15 K	1350.11	–
325.15 K	1349.49	–
326.15 K	1348.88	–
327.15 K	1348.27	–
328.15 K	1347.65	279.7
329.15 K	1347.04	–
330.15 K	1346.43	–
331.15 K	1345.82	–
332.15 K	1345.2	–
333.15 K	1344.6	222.6
334.15 K	1343.99	–
335.15 K	1343.38	–
336.15 K	1342.77	–
337.15 K	1342.16	–
338.15 K	1341.56	179.6
339.15 K	1340.95	–
340.15 K	1340.35	–
341.15 K	1339.75	–
342.15 K	1339.14	–
343.15 K	1338.54	146.7
344.15 K	1337.94	–
345.15 K	1337.34	–
346.15 K	1336.74	–
347.15 K	1336.14	–
348.15 K	1335.54	121.2
349.15 K	1334.94	–
350.15 K	1334.35	–
351.15 K	1333.75	–
352.15 K	1333.16	–
353.15 K	1332.57	101.2
354.15 K	1331.97	–
355.15 K	1331.38	–
356.15 K	1330.79	–
357.15 K	1330.2	–
358.15 K	1329.61	85.2
359.15 K	1329.02	–
360.15 K	1328.44	–
361.15 K	1327.85	–
362.15 K	1327.26	–
363.15 K	1326.68	72.4
368.15 K	–	61.9
373.15 K	–	53.4

CCn1cc[n+](C)c1.COS(=O)(=O)[O-] [1-ethyl-3-methylimidazolium methylsulfate]
Conditions	mass density [kg/m3]	viscosity [mPa·s]
283.15 K	–	169.5
288.15 K	–	128.6
293.15 K	1289.48	99.7
294.15 K	1288.8	–
295.15 K	1288.1	–
296.15 K	1287.41	–
297.15 K	1286.71	–
298.15 K	1286.02	78.8
299.15 K	1285.33	–
300.15 K	1284.64	–
301.15 K	1283.95	–
302.15 K	1283.26	–
303.15 K	1282.57	63.4
304.15 K	1281.89	–
305.15 K	1281.2	–
306.15 K	1280.52	–
307.15 K	1279.84	–
308.15 K	1279.15	51.8
309.15 K	1278.48	–
310.15 K	1277.8	–
311.15 K	1277.12	–
312.15 K	1276.44	–
313.15 K	1275.76	42.9
314.15 K	1275.09	–
315.15 K	1274.41	–
316.15 K	1273.74	–
317.15 K	1273.07	–
318.15 K	1272.4	35.9
319.15 K	1271.72	–
320.15 K	1271.05	–
321.15 K	1270.38	–
322.15 K	1269.71	–
323.15 K	1269.04	30.5
324.15 K	1268.37	–
325.15 K	1267.71	–
326.15 K	1267.04	–
327.15 K	1266.38	–
328.15 K	1265.71	26.1
329.15 K	1265.05	–
330.15 K	1264.39	–
331.15 K	1263.72	–
332.15 K	1263.06	–
333.15 K	1262.4	22.6
334.15 K	1261.74	–
335.15 K	1261.08	–
336.15 K	1260.42	–
337.15 K	1259.76	–
338.15 K	1259.1	19.7
339.15 K	1258.44	–
340.15 K	1257.78	–
341.15 K	1257.13	–
342.15 K	1256.47	–
343.15 K	1255.81	17.3
344.15 K	1255.15	–
345.15 K	1254.5	–
346.15 K	1253.84	–
347.15 K	1253.19	–
348.15 K	1252.54	15.3
349.15 K	1251.88	–
350.15 K	1251.23	–
351.15 K	1250.58	–
352.15 K	1249.93	–
353.15 K	1249.28	13.6
354.15 K	1248.63	–
355.15 K	1247.98	–
356.15 K	1247.33	–
357.15 K	1246.68	–
358.15 K	1246.03	12.2
359.15 K	1245.38	–
360.15 K	1244.74	–
361.15 K	1244.09	–
362.15 K	1243.44	–
363.15 K	1242.8	11
368.15 K	–	9.9
373.15 K	–	9
